{"source": "paper PMC1991597", "about": "“Structure and Reaction Mechanism of Basil Eugenol Synthase” (PLoS ONE, 2007)", "molecules": {"B1": {"name": "eugenol synthase (EGS, EGS1) (Ocimum basilicum) (protein)", "chain": "MEENGMKSKILIFGGTGYIGNHMVKGSLKLGHPTYVFTRPNSSKTTLLDEFQSLGAIIVKGELDEHEKLVELMKKVDVVISALAFPQILDQFKILEAIKVAGNIKRFLPSDFGVEEDRINALPPFEALIERKRMIRRAIEEANIPYTYVSANCFASYFINYLLRPYDPKDEITVYGTGEAKFAMNYEQDIGLYTIKVATDPRALNRVVIYRPSTNIITQLELISRWEKKIGKKFKKIHVPEEEIVALTKELPEPENIPIAILHCLFIDGATMSYDFKENDVEASTLYPELKFTTIDELLDIFVHDPPPPASAAF"}}, "key": {"[1]": {"target": "T1, eugenol synthase (EGS, EGS1) (Ocimum basilicum, UniProt Q15GI4)", "assay": "X-ray co-crystal structure ([…] Å, soaking); enzyme inhibition kinetics (GC/MS)", "assay_type": "biochemical"}, "[2]": {"target": "T2, eugenol synthase (EGS, EGS1) (Ocimum basilicum, UniProt Q15GI4, K132A)", "T2 sequence (Q15GI4 1-314 K132A)": "B1 chain with K132A", "assay": "X-ray crystallography (no deposition stated)", "assay_type": "binding"}, "[3]": {"target": "T3, eugenol synthase (EGS, EGS1) (Ocimum basilicum, UniProt Q15GI4, K132Q)", "T3 sequence (Q15GI4 1-314 K132Q)": "B1 chain with K132Q", "assay": "X-ray co-crystal structure ([…] Å)", "assay_type": "binding"}, "[4]": {"target": "T4, eugenol synthase (EGS, EGS1) (Ocimum basilicum, UniProt Q15GI4, K132R)", "T4 sequence (Q15GI4 1-314 K132R)": "B1 chain with K132R", "assay": "X-ray crystallography (preliminary structural analysis)", "assay_type": "binding"}, "[5]": {"target": "T1, eugenol synthase (EGS, EGS1)", "assay": "X-ray crystal structure ([…] Å monoclinic; also 2QX7 orthorhombic)", "assay_type": "binding"}, "[6]": {"target": "T1, eugenol synthase (EGS, EGS1)", "assay": "X-ray crystal structure ([…] Å)", "assay_type": "binding"}, "[7]": {"substrate": "COc1cc(/C=C/COC(C)=O)ccc1O", "assay": "enzyme kinetics by GC/MS (Km); crystal soaking gave no stable complex", "assay_type": "biochemical, Ocimum basilicum", "conditions": "NADPH active site (binding mode modeled only)"}}, "note": "Where a chain is given by its changes, count along the chain named."}
{"molecule": "CCOC(=O)[C@H]1C[C@@H]1c1ccc(O)c(OC)c1", "note": "[EMDF, (1S,2S)-ethyl 2-(4-hydroxy-3-methoxyphenyl) cyclo-propanecarboxylate]", "values": [{"measurement": "Ki", "setting": "[1]", "value": 800, "unit": "µM"}, {"measurement": "X-ray crystallography (no deposition stated)", "setting": "[2]", "value": "Crystallographic analyses confirmed that for the Ala132 and Gln132 mutants, both NADP^+ and EMDF binding are little affected"}, {"measurement": "X-ray co-crystal structure (1.8 Å)", "setting": "[3]", "value": "for the Ala132 and Gln132 mutants, both NADP^+ and EMDF binding are little affected (Figure 5C)"}, {"measurement": "X-ray crystallography (preliminary structural analysis)", "setting": "[4]", "value": "EMDF-bound forms of the Lys132Arg mutant shows that the Arg132 guanidinium moiety is displaced slightly by the EMDF guaiacol ring"}]}
{"molecule": "NC(=O)c1ccc[n+]([C@@H]2O[C@H](COP(=O)(O)OP(=O)(O)OC[C@H]3O[C@@H](n4cnc5c(N)ncnc54)[C@H](OP(=O)(O)O)[C@@H]3O)[C@@H](O)[C@H]2O)c1", "note": "[NADP+]", "values": [{"measurement": "X-ray crystal structure (1.6 Å monoclinic; also 2QX7 orthorhombic)", "setting": "[5]", "value": "The structures of EGS complexed with NADP^+ or NADPH provide the first structural characterization of nicotinamide-cofactor binding"}]}
{"molecule": "NC(=O)C1=CN([C@@H]2O[C@H](COP(=O)(O)OP(=O)(O)OC[C@H]3O[C@@H](n4cnc5c(N)ncnc54)[C@H](OP(=O)(O)O)[C@@H]3O)[C@@H](O)[C@H]2O)C=CC1", "note": "[NADPH]", "values": [{"measurement": "X-ray crystal structure (1.6 Å)", "setting": "[6]", "value": "Structural differences between the NADP^+ and NADPH complexes of EGS are small, and center around the nicotinamide ring"}]}
{"molecule": "B1", "values": [{"measurement": "Km", "setting": "[7]", "value": 570, "unit": "µM"}]}
